The values below come from patent EP0572863A1, “CNS pyrazinoindoles” (priority 1992, dated 1993).

One experiment concerns the target T1, 5HT1A-Rezeptor (Homo sapiens, UniProt P08908).
T1 sequence (P08908 1-422): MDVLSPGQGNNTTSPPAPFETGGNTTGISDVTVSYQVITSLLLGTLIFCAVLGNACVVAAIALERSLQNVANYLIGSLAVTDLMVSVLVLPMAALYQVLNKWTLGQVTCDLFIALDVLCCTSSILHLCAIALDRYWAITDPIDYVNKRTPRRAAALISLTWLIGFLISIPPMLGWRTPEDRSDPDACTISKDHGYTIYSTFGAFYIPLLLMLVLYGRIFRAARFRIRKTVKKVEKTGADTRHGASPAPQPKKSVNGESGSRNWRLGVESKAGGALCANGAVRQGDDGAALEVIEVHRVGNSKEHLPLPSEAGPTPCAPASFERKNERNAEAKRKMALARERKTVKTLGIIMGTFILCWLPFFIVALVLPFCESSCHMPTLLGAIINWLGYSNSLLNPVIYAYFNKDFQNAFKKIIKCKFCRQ
Nature of the experiment: 3H-8-OH-DPAT binding test (test method a).

In the next experiment the target is 5HT₂-Rezeptor (Homo sapiens, UniProt P28223). Nature of the experiment: 3H-Metanserin binding test (test method d).
5HT₂-Rezeptor, sequence (P28223 whole entry): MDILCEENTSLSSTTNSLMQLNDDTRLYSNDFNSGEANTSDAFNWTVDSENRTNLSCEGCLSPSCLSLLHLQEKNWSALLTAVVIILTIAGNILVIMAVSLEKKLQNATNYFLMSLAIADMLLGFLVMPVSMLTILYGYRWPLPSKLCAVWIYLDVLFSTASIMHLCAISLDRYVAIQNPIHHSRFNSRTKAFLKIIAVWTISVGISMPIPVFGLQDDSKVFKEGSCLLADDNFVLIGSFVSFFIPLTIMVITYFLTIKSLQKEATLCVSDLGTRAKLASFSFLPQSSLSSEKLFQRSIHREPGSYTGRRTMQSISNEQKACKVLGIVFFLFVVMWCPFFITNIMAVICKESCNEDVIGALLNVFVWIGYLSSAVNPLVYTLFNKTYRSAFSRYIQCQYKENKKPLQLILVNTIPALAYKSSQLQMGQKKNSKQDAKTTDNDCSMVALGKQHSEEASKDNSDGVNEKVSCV
A further experiment addresses 5HT1C-Rezeptor (Homo sapiens, UniProt P28335). Nature of the experiment: 3H-Mesulergin binding test (test method c).
For a further experiment, the target named is T2, 5HT1c-Rezeptoren (Rattus norvegicus, UniProt P08909).
T2 construct: from tissue; host or cells: living rat (whole animal)
T2 sequence (P08909 33-460): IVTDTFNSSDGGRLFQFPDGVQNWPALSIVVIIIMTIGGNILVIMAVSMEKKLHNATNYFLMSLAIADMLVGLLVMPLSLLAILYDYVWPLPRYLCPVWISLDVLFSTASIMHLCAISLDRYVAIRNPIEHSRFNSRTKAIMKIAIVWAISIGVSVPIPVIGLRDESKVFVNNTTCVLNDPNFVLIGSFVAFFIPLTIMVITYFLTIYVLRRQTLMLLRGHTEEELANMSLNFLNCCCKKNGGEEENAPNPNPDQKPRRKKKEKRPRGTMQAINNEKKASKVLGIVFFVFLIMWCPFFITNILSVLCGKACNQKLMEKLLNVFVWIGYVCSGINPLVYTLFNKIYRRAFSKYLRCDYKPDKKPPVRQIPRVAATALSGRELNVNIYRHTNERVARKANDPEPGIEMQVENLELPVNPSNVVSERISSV
Nature of the experiment: Antagonism of mCPP-induced penile erections. The format is in vivo, Ratte. The settings on record: mCPP-pretreated, dose inhibiting number of penile erections within 45 min by 50%.

The next experiment addresses T3, 5HT₂-Rezeptoren (Rattus norvegicus, UniProt P14842).
T3 construct: from tissue; host or cells: living rat (whole animal)
Nature of the experiment: Antagonism of Quipazine-induced head shakes. The settings on record: Quipazine-pretreated, dose inhibiting number of head shakes within 45 min by 50%. In kind it is in vivo, Ratte.

Where [1] appears, read: Testmethode c, concentration displacing 50% of receptor-bound ligand (3H-Mesulergin), read-out: IC₅₀.
Where [2] appears, read: Testmethode d, concentration displacing 50% of receptor-bound ligand (3H-Metanserin), read-out: IC₅₀.
[3] abbreviates: Testmethode a, concentration displacing 50% of receptor-bound ligand (3H-8-OH-DPAT), read-out: IC₅₀.

Where two headings read alike, the source gives them in different places.

5HT1C-Rezeptor, sequence (P28335 33-458): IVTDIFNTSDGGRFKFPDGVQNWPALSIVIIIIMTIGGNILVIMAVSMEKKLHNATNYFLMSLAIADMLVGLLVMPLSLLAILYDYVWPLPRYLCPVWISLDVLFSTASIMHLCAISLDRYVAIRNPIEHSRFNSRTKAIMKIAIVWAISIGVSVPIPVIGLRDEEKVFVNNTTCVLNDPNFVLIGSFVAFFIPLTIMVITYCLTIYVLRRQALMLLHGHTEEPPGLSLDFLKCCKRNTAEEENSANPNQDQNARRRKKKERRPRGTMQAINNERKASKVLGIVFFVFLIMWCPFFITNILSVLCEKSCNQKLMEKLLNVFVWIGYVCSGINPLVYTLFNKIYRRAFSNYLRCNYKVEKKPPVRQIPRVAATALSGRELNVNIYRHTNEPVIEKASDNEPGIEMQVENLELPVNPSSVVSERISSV
T3 sequence (P14842 whole entry): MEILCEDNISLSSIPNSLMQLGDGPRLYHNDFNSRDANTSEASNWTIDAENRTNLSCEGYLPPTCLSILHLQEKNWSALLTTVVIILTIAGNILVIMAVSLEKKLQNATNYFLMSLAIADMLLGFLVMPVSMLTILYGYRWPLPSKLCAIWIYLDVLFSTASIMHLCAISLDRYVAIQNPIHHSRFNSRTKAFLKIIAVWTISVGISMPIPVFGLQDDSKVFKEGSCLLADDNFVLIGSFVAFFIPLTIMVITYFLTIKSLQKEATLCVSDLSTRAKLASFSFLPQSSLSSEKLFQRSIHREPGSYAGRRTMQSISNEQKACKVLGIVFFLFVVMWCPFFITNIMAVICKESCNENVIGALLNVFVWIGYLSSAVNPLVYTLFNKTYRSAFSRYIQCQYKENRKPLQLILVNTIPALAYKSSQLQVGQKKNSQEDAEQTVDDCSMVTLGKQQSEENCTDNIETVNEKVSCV

As to `O=c1ccc2[nH]cc(C3=CCNCC3)c2[nH]1` [CP 93129, reference compound], the figures for the IC50 at 5HT1A-Rezeptor and at 5HT₂-Rezeptor were 1620 nM and 29200 nM, respectively.
For `COc1ccccc1N1CCN(CCCCN2C(=O)c3ccccc3C2=O)CC1` [NAN-190, reference compound], the values for the IC50 at 5HT1C-Rezeptor (setting [1]) and on 5HT₂-Rezeptor were 1800 nM and 581 nM, respectively.
`Cc1nc2ccccn2c(=O)c1CCN1CCC(C(=O)c2ccc(F)cc2)CC1` [Pirenperon, reference compound]: the IC50 is 37 nM at 5HT1C-Rezeptor, 2870 nM on 5HT1A-Rezeptor and 2.9 nM at 5HT₂-Rezeptor (setting [2]).
On 5HT1A-Rezeptor, `COc1ccc2[nH]cc(C3=CCNCC3)c2c1` [RU 24969, reference compound] registered an IC50 of 8 nM.
As to `Cc1nc2sccn2c(=O)c1CCN1CCC(=C(c2ccc(F)cc2)c2ccc(F)cc2)CC1` [Ritanserin, reference compound], on 5HT1C-Rezeptor (setting [1]), the IC50 is 37 nM.
As for `COc1c2n(c3ccccc13)CCNC2` [Substanz A, 10-Methoxy-1,2,3,4-tetrahydropyrazino[1,2-a]-indol], the IC50 at 5HT1A-Rezeptor (setting [3]) was determined as 687 nM.
Turning to `COc1c2n(c3ccc(F)cc13)CCNC2` [Substanz B, 8-Fluor-1,2,3,4-tetrahydro-10-methoxy-pyrazino[1,2-a]-indol], at 5HT1c-Rezeptoren, the ID₅₀ is given as 4.2 mg/kg, s.c. In addition, the IC50 amounted to 367 nM at 5HT1C-Rezeptor, 2370 nM on 5HT1A-Rezeptor and 9390 nM at 5HT₂-Rezeptor.
`COc1c2n(c3cccc(F)c13)CCNC2` [Substanz C, 9-Fluor-1,2,3,4-tetrahydro-10-methoxy-pyrazino[1,2-a]indol]: the ID₅₀ at 5HT1c-Rezeptoren is 17.0 mg/kg, s.c. The IC50 amounted to 221 nM on 5HT1C-Rezeptor, 1070 nM on 5HT1A-Rezeptor and 5170 nM on 5HT₂-Rezeptor.
Turning to `COc1c2n(c3ccc(Cl)cc13)CCNC2` [Substanz D, 8-Chlor-1,2,3,4-tetrahydro-10-methoxy-pyrazino[1,2-a]-indol], the IC50 at 5HT1C-Rezeptor is 195 nM; on 5HT1A-Rezeptor, 657 nM; on 5HT₂-Rezeptor (setting [2]) it was 3140 nM.
In the case of `COc1c2n(c3cccc(Br)c13)CCNC2` [Substanz E, 9-Brom-1,2,3,4-tetrahydro-10-methoxy-pyrazino[1,2-a]indol], the ID₅₀ at 5HT1c-Rezeptoren is on record as 4.3 mg/kg, s.c; at 5HT₂-Rezeptoren, 3.1 mg/kg. s.c. Besides, the IC50 was determined as 83.8 nM on 5HT1C-Rezeptor, 407 nM on 5HT1A-Rezeptor and 1020 nM at 5HT₂-Rezeptor.
On to `COc1c2n(c3cc(Cl)ccc13)CCNC2` [Substanz F, 7-Chlor-1,2,3,4-tetrahydro-10-methoxy-pyrazino[1,2-a]indol], for which the IC50 came out at 406 nM on 5HT1C-Rezeptor (setting [1]), 425 nM at 5HT1A-Rezeptor and 9460 nM on 5HT₂-Rezeptor (setting [2]).
For `COc1c2n(c3ccc(Br)cc13)CCNC2` [Substanz G, 8-Brom-1,2,3,4-tetrahydro-10-methoxy-pyrazino[1,2-a]indol], the IC50 was found to be 269 nM on 5HT1C-Rezeptor (setting [1]), 298 nM at 5HT1A-Rezeptor and 2810 nM at 5HT₂-Rezeptor (setting [2]).
As to `COc1c2n(c3ccc(F)c(Cl)c13)CCNC2` [Substanz H, 9-Chlor-8-fluor-1,2,3,4-tetrahydro-10-methoxy-pyrazino[1,2-a]indol], the IC50 was found to be 90.5 nM at 5HT1C-Rezeptor (setting [1]), 354 nM at 5HT1A-Rezeptor and 1030 nM on 5HT₂-Rezeptor (setting [2]).
Consider `COc1c2n(c3cccc(C)c13)CCNC2` [Substanz I, 1,2,3,4-Tetrahydro-10-methoxy-9-methyl-pyrazino[1,2-a]indol], for which the ID₅₀ on 5HT1c-Rezeptoren is recorded as 2.7 mg/kg, s.c; on 5HT₂-Rezeptoren, 3.0 mg/kg. s.c. For the same compound, the IC50 is 219 nM at 5HT1C-Rezeptor (setting [1]), 106 nM at 5HT1A-Rezeptor (setting [3]) and 2270 nM at 5HT₂-Rezeptor (setting [2]).
Take `COc1c2n(c3cccc(C(F)(F)F)c13)CCNC2` [Substanz J, 9-Trifluormethyl-1,2,3,4-tetrahydro-10-methoxy-pyrazino[1,2-a]-indol]: the figures for the IC50 on 5HT1C-Rezeptor (setting [1]), at 5HT1A-Rezeptor and on 5HT₂-Rezeptor (setting [2]) were 66 nM, 512 nM and 374 nM, respectively.
As to `CSc1c2n(c3ccccc13)CCNC2` [Substanz K, 1,2,3,4-Tetrahydro-10-methylthiopyrazino[1,2-a]-indol], the IC50 at 5HT1A-Rezeptor (setting [3]) was 705 nM.
Take `COc1c2n(c3cc(Cl)cc(Cl)c13)CCNC2` [Substanz L, 7,9-Dichlor-1,2,3,4-tetrahydro-10-methoxy-pyrazino[1,2-a]indol]: the IC50 was 251 nM on 5HT1C-Rezeptor (setting [1]), 459 nM on 5HT1A-Rezeptor and 5850 nM at 5HT₂-Rezeptor (setting [2]).
On the same counts, the results for `COc1c2n(c3c(Br)cccc13)CCNC2` [Substanz M, 6-Brom-1,2,3,4-tetrahydro-10-methoxy-pyrazino[1,2-a]indol] are 923 nM, 690 nM and 3030 nM.
As to `Fc1ccc2c(cc3n2CCNC3)c1Cl` [Substanz N, 9-Chlor-8-fluor-1,2,3,4-tetrahydropyrazino[1,2-a]indol], the ID₅₀ at 5HT1c-Rezeptoren is listed as 4.2 mg/kg, s.c; on 5HT₂-Rezeptoren, 5.2 mg/kg. s.c. The IC50 at 5HT1C-Rezeptor (setting [1]) is 57 nM; at 5HT1A-Rezeptor, 964 nM; at 5HT₂-Rezeptor (setting [2]), 902 nM.
On 5HT1A-Rezeptor, `Clc1cccc(N2CCNCC2)c1` [mCPP, reference compound] gave an IC50 of 227 nM.
